In the supplement of paper PMC10307832:

Assays:
Assay in all cases: relative viability (nuclei count vs DMSO), 5 days (fraction); higher = more cells survive
[1] = compound: Nc1nc2[nH]cc(CCc3ccc(C(=O)N[C@@H](CCC(=O)O)C(=O)O)cc3)c2c(=O)[nH]1 [Pemetrexed] + Cc1nc(NC(=O)N2CCC[C@H]2C(N)=O)sc1-c1ccnc(C(C)(C)C(F)(F)F)c1 [Alpelisib] (partner 2 µM)
Summary of the method: (§1)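 Lung cancer cell lines were pin-tool dosed in 1536-well plates on the day after seeding, with either a lone drug or a fixed anchor-drug dose plus five library-drug doses (not always all listed) in √10 steps. Nuclei were counted on 4× images after 5 days. Relative viability is the ratio of treated-well to vehicle-well nuclei counts, with each value a median of duplicate plates.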

[2] = compound: Nc1nc2[nH]cc(CCc3ccc(C(=O)N[C@@H](CCC(=O)O)C(=O)O)cc3)c2c(=O)[nH]1 [Pemetrexed] + CC1(C)CCC(c2ccc(Cl)cc2)=C(CN2CCN(c3ccc(C(=O)NS(=O)(=O)c4ccc(N[C@H](CCN5CCOCC5)CSc5ccccc5)c(S(=O)(=O)C(F)(F)F)c4)cc3)CC2)C1 [Navitoclax] (partner 0.5 µM)
Summary of the method: as §1

[3] = compound: CC[C@H](Nc1ncnc2[nH]cnc12)c1nc2cccc(F)c2c(=O)n1-c1ccccc1 [Idelalisib] + O=C(CCCCCCC(=O)Nc1ccccc1)NO [Vorinostat] (partner 1 µM)
Summary of the method: as §1

[4] = compound: CC[C@H](Nc1ncnc2[nH]cnc12)c1nc2cccc(F)c2c(=O)n1-c1ccccc1 [Idelalisib] + C[C@]1(O)C[C@@H](c2nc(-c3ccc4ccc(-c5ccccc5)nc4c3)c3c(N)nccn32)C1 [Linsitinib] (partner 1 µM)
Summary of the method: as §1

Cell Line	relative viability ([1]; first compound 0.002 µM)	relative viability ([1]; first compound 0.006325 µM)	relative viability ([1]; first compound 0.02 µM)	relative viability ([1]; first compound 0.06325 µM)	relative viability ([1]; first compound 0.2 µM)	relative viability ([2]; first compound 0.002 µM)	relative viability ([2]; first compound 0.006325 µM)	relative viability ([2]; first compound 0.02 µM)	relative viability ([2]; first compound 0.06325 µM)	relative viability ([2]; first compound 0.2 µM)	relative viability ([3]; first compound 0.04 µM)	relative viability ([3]; first compound 0.1265 µM)	relative viability ([3]; first compound 0.4 µM)	relative viability ([3]; first compound 1.265 µM)	relative viability ([3]; first compound 4 µM)	relative viability ([4]; first compound 0.04 µM)	relative viability ([4]; first compound 0.1265 µM)	relative viability ([4]; first compound 0.4 µM)	relative viability ([4]; first compound 1.265 µM)	relative viability ([4]; first compound 4 µM)
EKVX	0.827	0.89	0.943	0.827	0.615	0.913	0.904	0.961	0.928	0.627	0.726	0.792	0.676	0.703	0.399	0.832	0.97	0.849	0.724	0.758
NCI-H2085	0.91	0.952	1.07	0.951	0.952	1.05	1.18	1.07	1.12	1.15	0.794	0.788	0.702	0.614	0.484	0.912	1.03	0.8	0.579	0.437
NCI-H3122	0.94	0.833	0.734	0.772	0.521	0.981	1.06	1.03	1.01	0.826	1.01	1.07	0.933	1.02	0.579	0.953	0.952	1.03	0.935	0.894
HCC-827	0.891	0.977	0.996	1.07	0.726	0.926	0.964	1.13	1.02	0.908	0.957	0.664	0.897	0.848	0.969	0.958	0.961	0.96	0.885	0.965
HARA	0.822	0.814	0.862	0.799	0.275	1	1.1	1.17	1.08	0.381	0.453	0.504	0.473	0.574	0.39	1.21	0.911	0.869	0.887	0.936
NCI-H441	0.667	0.686	0.932	0.531	0.53	–	0.457	0.605	0.6	0.48	0.851	0.908	–	0.737	0.758	0.43	0.437	–	0.438	0.41
SK-MES-1	0.92	0.732	1.04	0.864	0.8	1.24	1.1	1.27	1.26	1.2	1.19	1.06	0.974	0.395	1.04	1.02	0.984	0.934	0.855	0.703
